Reference: ChEMBL document CHEMBL1201861, “Genomics of Drug Sensitity in Cancer screening data, Wellcome Trust Sanger Institute”

system: ACN; assay: cells; assay type: functional, cell-based, Homo sapiens; conditions: Homo sapiens, ACN;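 note: growth inhibition of the human ACN cell line, read out via cell viability testing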
Description: SANGER: Inhibition of human ACN cell growth in a cell viability assay.

Question: With C=CC(=O)N1CCCC(Nc2nc(Nc3ccc(N(C)C(=O)CC)cc3)nc3[nH]cnc23)C1 (configuration not stated) as the compound, how does the IC50 read?
Answer: > 10.2 µM

system: MZ7-mel; assay: cells; assay type: functional, cell-based, Homo sapiens; conditions: Homo sapiens, MZ7-mel;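 note: growth inhibition of human MZ7-mel cells, measured by a cell viability assay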
Description: SANGER: Inhibition of human MZ7-mel cell growth in a cell viability assay.

Question: Which IC50 does the source give for C=CC(=O)N1CCCC(Nc2nc(Nc3ccc(N(C)C(=O)CC)cc3)nc3[nH]cnc23)C1 (configuration not stated) here?
Answer: > 10.2 µM

system: KURAMOCHI; assay: cells; assay type: functional, cell-based, Homo sapiens; conditions: Homo sapiens, KURAMOCHI;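 note: growth inhibition of KURAMOCHI cells, read out with a cell viability assay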
Description: SANGER: Inhibition of human KURAMOCHI cell growth in a cell viability assay.

Question: How did the IC50 turn out when C=CC(=O)N1CCCC(Nc2nc(Nc3ccc(N(C)C(=O)CC)cc3)nc3[nH]cnc23)C1 (configuration not stated) was run?
Answer: > 10.2 µM

system: HCC2157; assay: cells; assay type: functional, cell-based, Homo sapiens; conditions: Homo sapiens, HCC2157;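 note: growth inhibition of the cancer cell line, read out as cell viability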
Description: SANGER: Inhibition of human HCC2157 cell growth in a cell viability assay.

Question: How did the IC50 turn out when C=CC(=O)N1CCCC(Nc2nc(Nc3ccc(N(C)C(=O)CC)cc3)nc3[nH]cnc23)C1 (configuration not stated) was run?
Answer: > 10.2 µM

system: LAMA-84; assay: cells; assay type: functional, cell-based, Homo sapiens; conditions: Homo sapiens, LAMA-84;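 note: growth inhibition of LAMA-84 cells, read out with a cell viability assay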
Description: SANGER: Inhibition of human LAMA-84 cell growth in a cell viability assay.

Question: How did the IC50 turn out when C=CC(=O)N1CCCC(Nc2nc(Nc3ccc(N(C)C(=O)CC)cc3)nc3[nH]cnc23)C1 (configuration not stated) was run?
Answer: > 10.2 µM

system: IST-SL1; assay: cells; assay type: functional, cell-based, Homo sapiens; conditions: Homo sapiens, IST-SL1;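 note: growth inhibition of human IST-SL1 cells, read out with a cell viability assay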
Description: SANGER: Inhibition of human IST-SL1 cell growth in a cell viability assay.

Question: C=CC(=O)N1CCCC(Nc2nc(Nc3ccc(N(C)C(=O)CC)cc3)nc3[nH]cnc23)C1 (configuration not stated) was tested. Which IC50 did it give?
Answer: > 10.2 µM

system: C8166; assay: cells; assay type: functional, cell-based, Homo sapiens; conditions: Homo sapiens, C8166;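 note: growth inhibition of human C8166 cells measured by a cell viability assay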
Description: SANGER: Inhibition of human C8166 cell growth in a cell viability assay.

Question: C=CC(=O)N1CCCC(Nc2nc(Nc3ccc(N(C)C(=O)CC)cc3)nc3[nH]cnc23)C1 (configuration not stated) was tested. Which IC50 did it give?
Answer: > 10.2 µM

system: CCRF-CEM; assay: cells; assay type: functional, cell-based, Homo sapiens; conditions: Homo sapiens, CCRF-CEM;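 note: inhibition of CCRF-CEM cell growth, measured by a cell viability assay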
Description: SANGER: Inhibition of human CCRF-CEM cell growth in a cell viability assay.

Question: For C=CC(=O)N1CCCC(Nc2nc(Nc3ccc(N(C)C(=O)CC)cc3)nc3[nH]cnc23)C1 (configuration not stated), which IC50 is on record?
Answer: > 10.2 µM

system: LOX IMVI; assay: cells; assay type: functional, cell-based, Homo sapiens; conditions: Homo sapiens, LOX IMVI
Description: SANGER: Inhibition of human LOXIMVI cell growth in a cell viability assay.

Question: C=CC(=O)N1CCCC(Nc2nc(Nc3ccc(N(C)C(=O)CC)cc3)nc3[nH]cnc23)C1 (configuration not stated) was tested. Which IC50 did it give?
Answer: > 10.2 µM

system: L-363; assay: cells; assay type: functional, cell-based, Homo sapiens; conditions: Homo sapiens, L-363
Description: SANGER: Inhibition of human L-363 cell growth in a cell viability assay.

Question: How did the IC50 turn out when C=CC(=O)N1CCCC(Nc2nc(Nc3ccc(N(C)C(=O)CC)cc3)nc3[nH]cnc23)C1 (configuration not stated) was run?
Answer: > 10.2 µM

system: A498; assay: cells; assay type: functional, cell-based, Homo sapiens; conditions: Homo sapiens, A498;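 note: growth inhibition of human A498 cells, read out with a cell viability assay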
Description: SANGER: Inhibition of human A498 cell growth in a cell viability assay.

Question: How did the IC50 turn out when C=CC(=O)N1CCCC(Nc2nc(Nc3ccc(N(C)C(=O)CC)cc3)nc3[nH]cnc23)C1 (configuration not stated) was run?
Answer: > 10.2 µM

system: NCI-H1155; assay: cells; assay type: functional, cell-based, Homo sapiens; conditions: Homo sapiens, NCI-H1155;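 note: cell growth inhibition measured by a viability assay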
Description: SANGER: Inhibition of human NCI-H1155 cell growth in a cell viability assay.

Question: How did the IC50 turn out when C=CC(=O)N1CCCC(Nc2nc(Nc3ccc(N(C)C(=O)CC)cc3)nc3[nH]cnc23)C1 (configuration not stated) was run?
Answer: > 10.2 µM

system: SCC-15; assay: cells; assay type: functional, cell-based, Homo sapiens; conditions: Homo sapiens, SCC-15;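 note: growth inhibition of SCC-15 cells, read out with a cell viability assay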
Description: SANGER: Inhibition of human SCC-15 cell growth in a cell viability assay.

Question: C=CC(=O)N1CCCC(Nc2nc(Nc3ccc(N(C)C(=O)CC)cc3)nc3[nH]cnc23)C1 (configuration not stated) was tested. Which IC50 did it give?
Answer: > 10.2 µM

system: SK-N-FI; assay: cells; assay type: functional, cell-based, Homo sapiens; conditions: Homo sapiens, SK-N-FI;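 note: cell viability assay measuring growth inhibition of human SK-N-FI cells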
Description: SANGER: Inhibition of human SK-N-FI cell growth in a cell viability assay.

Question: With C=CC(=O)N1CCCC(Nc2nc(Nc3ccc(N(C)C(=O)CC)cc3)nc3[nH]cnc23)C1 (configuration not stated) as the compound, how does the IC50 read?
Answer: > 10.2 µM

system: IST-MES1; assay: cells; assay type: functional, cell-based, Homo sapiens; conditions: Homo sapiens, IST-MES1;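 note: growth inhibition of IST-MES1 cells, measured with a cell viability assay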
Description: SANGER: Inhibition of human IST-MES1 cell growth in a cell viability assay.

Question: C=CC(=O)N1CCCC(Nc2nc(Nc3ccc(N(C)C(=O)CC)cc3)nc3[nH]cnc23)C1 (configuration not stated) was tested. Which IC50 did it give?
Answer: > 10.2 µM

system: NCI-H23; assay: cells; assay type: functional, cell-based, Homo sapiens; conditions: Homo sapiens, NCI-H23;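 note: cell viability assay measuring growth inhibition of NCI-H23 cells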
Description: SANGER: Inhibition of human NCI-H23 cell growth in a cell viability assay.

Question: For C=CC(=O)N1CCCC(Nc2nc(Nc3ccc(N(C)C(=O)CC)cc3)nc3[nH]cnc23)C1 (configuration not stated), which IC50 is on record?
Answer: > 10.2 µM

system: RPMI-8866; assay: cells; assay type: functional, cell-based, Homo sapiens; conditions: Homo sapiens, RPMI-8866
Description: SANGER: Inhibition of human RPMI-8866 cell growth in a cell viability assay.

Question: C=CC(=O)N1CCCC(Nc2nc(Nc3ccc(N(C)C(=O)CC)cc3)nc3[nH]cnc23)C1 (configuration not stated) was tested. Which IC50 did it give?
Answer: > 10.2 µM

system: SK-UT-1; assay: cells; assay type: functional, cell-based, Homo sapiens; conditions: Homo sapiens, SK-UT-1;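 note: growth inhibition of SK-UT-1 cells, measured by a cell viability assay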
Description: SANGER: Inhibition of human SK-UT-1 cell growth in a cell viability assay.

Question: C=CC(=O)N1CCCC(Nc2nc(Nc3ccc(N(C)C(=O)CC)cc3)nc3[nH]cnc23)C1 (configuration not stated) was tested. Which IC50 did it give?
Answer: > 10.2 µM

system: ES4; assay: cells; assay type: functional, cell-based, Homo sapiens; conditions: Homo sapiens, ES4;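 note: growth inhibition of human ES4 cells, read out by a cell viability assay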
Description: SANGER: Inhibition of human ES4 cell growth in a cell viability assay.

Question: Which IC50 does the source give for C=CC(=O)N1CCCC(Nc2nc(Nc3ccc(N(C)C(=O)CC)cc3)nc3[nH]cnc23)C1 (configuration not stated) here?
Answer: > 10.2 µM

system: SNU-5; assay: cells; assay type: functional, cell-based, Homo sapiens; conditions: Homo sapiens, SNU-5;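 note: cell viability readout used to measure growth inhibition in human NCI-SNU-5 cells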
Description: SANGER: Inhibition of human NCI-SNU-5 cell growth in a cell viability assay.

Question: C=CC(=O)N1CCCC(Nc2nc(Nc3ccc(N(C)C(=O)CC)cc3)nc3[nH]cnc23)C1 (configuration not stated) was tested. Which IC50 did it give?
Answer: > 10.2 µM

system: BB30-HNC; assay: cells; assay type: functional, cell-based, Homo sapiens; conditions: Homo sapiens, BB30-HNC;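 note: growth inhibition of the cultured cell line, read out by a cell viability assay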
Description: SANGER: Inhibition of human BB30-HNC cell growth in a cell viability assay.

Question: How did the IC50 turn out when C=CC(=O)N1CCCC(Nc2nc(Nc3ccc(N(C)C(=O)CC)cc3)nc3[nH]cnc23)C1 (configuration not stated) was run?
Answer: 3.41 µM

system: NCI-H226; assay: cells; assay type: functional, cell-based, Homo sapiens; conditions: Homo sapiens, NCI-H226;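 note: cell viability read-out used to gauge growth inhibition of the cells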
Description: SANGER: Inhibition of human NCI-H226 cell growth in a cell viability assay.

Question: How did the IC50 turn out when C=CC(=O)N1CCCC(Nc2nc(Nc3ccc(N(C)C(=O)CC)cc3)nc3[nH]cnc23)C1 (configuration not stated) was run?
Answer: > 10.2 µM

system: HD-MY-Z; assay: cells; assay type: functional, cell-based, Homo sapiens; conditions: Homo sapiens, HD-MY-Z;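 note: growth inhibition of HD-MY-Z cells, read out with a cell viability assay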
Description: SANGER: Inhibition of human HD-MY-Z cell growth in a cell viability assay.

Question: Which IC50 does the source give for C=CC(=O)N1CCCC(Nc2nc(Nc3ccc(N(C)C(=O)CC)cc3)nc3[nH]cnc23)C1 (configuration not stated) here?
Answer: > 10.2 µM

system: SBC-1; assay: cells; assay type: functional, cell-based, Homo sapiens; conditions: Homo sapiens, SBC-1;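 note: cell viability assay measuring growth inhibition of the SBC-1 cell line, IC50 being the concentration that halves growth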
Description: SANGER: Inhibition of human SBC-1 cell growth in a cell viability assay.

Question: Which IC50 does the source give for C=CC(=O)N1CCCC(Nc2nc(Nc3ccc(N(C)C(=O)CC)cc3)nc3[nH]cnc23)C1 (configuration not stated) here?
Answer: 7.97 µM

system: DU-4475; assay: cells; assay type: functional, cell-based, Homo sapiens; conditions: Homo sapiens, DU-4475
Description: SANGER: Inhibition of human DU-4475 cell growth in a cell viability assay.

Question: How did the IC50 turn out when C=CC(=O)N1CCCC(Nc2nc(Nc3ccc(N(C)C(=O)CC)cc3)nc3[nH]cnc23)C1 (configuration not stated) was run?
Answer: > 10.2 µM

system: LS-513; assay: cells; assay type: functional, cell-based, Homo sapiens; conditions: Homo sapiens, LS-513
Description: SANGER: Inhibition of human LS-513 cell growth in a cell viability assay.

Question: Which IC50 does the source give for C=CC(=O)N1CCCC(Nc2nc(Nc3ccc(N(C)C(=O)CC)cc3)nc3[nH]cnc23)C1 (configuration not stated) here?
Answer: > 10.2 µM

system: Mo; assay: cells; assay type: functional, cell-based, Homo sapiens; conditions: Homo sapiens, Mo
Description: SANGER: Inhibition of human Mo-T cell growth in a cell viability assay.

Question: C=CC(=O)N1CCCC(Nc2nc(Nc3ccc(N(C)C(=O)CC)cc3)nc3[nH]cnc23)C1 (configuration not stated) was tested. Which IC50 did it give?
Answer: > 10.2 µM

system: no-10; assay: cells; assay type: functional, cell-based, Homo sapiens; conditions: Homo sapiens;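 note: growth inhibition of no-10 cells, read out with a cell viability assay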
Description: SANGER: Inhibition of human no-10 cell growth in a cell viability assay.

Question: With C=CC(=O)N1CCCC(Nc2nc(Nc3ccc(N(C)C(=O)CC)cc3)nc3[nH]cnc23)C1 (configuration not stated) as the compound, how does the IC50 read?
Answer: > 10.2 µM

system: LB2241-RCC; assay: cells; assay type: functional, cell-based, Homo sapiens; conditions: Homo sapiens, LB2241-RCC;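 note: cell viability assay measuring how strongly the cultured human renal carcinoma line is prevented from growing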
Description: SANGER: Inhibition of human LB2241-RCC cell growth in a cell viability assay.

Question: For C=CC(=O)N1CCCC(Nc2nc(Nc3ccc(N(C)C(=O)CC)cc3)nc3[nH]cnc23)C1 (configuration not stated), which IC50 is on record?
Answer: > 10.2 µM

system: 697; assay: cells; assay type: functional, cell-based, Homo sapiens; conditions: Homo sapiens
Description: SANGER: Inhibition of human 697 cell growth in a cell viability assay.

Question: With C=CC(=O)N1CCCC(Nc2nc(Nc3ccc(N(C)C(=O)CC)cc3)nc3[nH]cnc23)C1 (configuration not stated) as the compound, how does the IC50 read?
Answer: > 10.2 µM

system: MONO-MAC-6; assay: cells; assay type: functional, cell-based, Homo sapiens; conditions: Homo sapiens, MONO-MAC-6;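 note: cell viability assay measuring growth inhibition of human MONO-MAC-6 cells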
Description: SANGER: Inhibition of human MONO-MAC-6 cell growth in a cell viability assay.

Question: How did the IC50 turn out when C=CC(=O)N1CCCC(Nc2nc(Nc3ccc(N(C)C(=O)CC)cc3)nc3[nH]cnc23)C1 (configuration not stated) was run?
Answer: > 10.2 µM

system: OS-RC-2; assay: cells; assay type: functional, cell-based, Homo sapiens; conditions: Homo sapiens, OS-RC-2;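 note: growth inhibition of human OS-RC-2 cells, measured by a cell viability assay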
Description: SANGER: Inhibition of human OS-RC-2 cell growth in a cell viability assay.

Question: Which IC50 does the source give for C=CC(=O)N1CCCC(Nc2nc(Nc3ccc(N(C)C(=O)CC)cc3)nc3[nH]cnc23)C1 (configuration not stated) here?
Answer: > 10.2 µM

system: NCI-H1650; assay: cells; assay type: functional, cell-based, Homo sapiens; conditions: Homo sapiens, NCI-H1650;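 note: growth inhibition of human NCI-H1650 cells measured by a cell viability assay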
Description: SANGER: Inhibition of human NCI-H1650 cell growth in a cell viability assay.

Question: Which IC50 does the source give for C=CC(=O)N1CCCC(Nc2nc(Nc3ccc(N(C)C(=O)CC)cc3)nc3[nH]cnc23)C1 (configuration not stated) here?
Answer: > 10.2 µM

system: SK-PN-DW; assay: cells; assay type: functional, cell-based, Homo sapiens; conditions: Homo sapiens, SK-PN-DW;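 note: growth inhibition measured with a viability assay on these cells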
Description: SANGER: Inhibition of human SK-PN-DW cell growth in a cell viability assay.

Question: How did the IC50 turn out when C=CC(=O)N1CCCC(Nc2nc(Nc3ccc(N(C)C(=O)CC)cc3)nc3[nH]cnc23)C1 (configuration not stated) was run?
Answer: > 10.2 µM

system: HH; assay: cells; assay type: functional, cell-based, Homo sapiens; conditions: Homo sapiens, HH
Description: SANGER: Inhibition of human HH cell growth in a cell viability assay.

Question: Which IC50 does the source give for C=CC(=O)N1CCCC(Nc2nc(Nc3ccc(N(C)C(=O)CC)cc3)nc3[nH]cnc23)C1 (configuration not stated) here?
Answer: > 10.2 µM

system: MV4-11; assay: cells; assay type: functional, cell-based, Homo sapiens, MV-4-11; conditions: Homo sapiens, MV4-11;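 note: cell viability readout measuring growth inhibition of human MV-4-11 cells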
Description: SANGER: Inhibition of human MV-4-11 cell growth in a cell viability assay.

Question: C=CC(=O)N1CCCC(Nc2nc(Nc3ccc(N(C)C(=O)CC)cc3)nc3[nH]cnc23)C1 (configuration not stated) was tested. Which IC50 did it give?
Answer: 2390 nM

system: KM-H2; assay: cells; assay type: functional, cell-based, Homo sapiens; conditions: Homo sapiens, KM-H2;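 note: growth inhibition of KM-H2 cells, read out by a cell viability assay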
Description: SANGER: Inhibition of human KM-H2 cell growth in a cell viability assay.

Question: Which IC50 does the source give for C=CC(=O)N1CCCC(Nc2nc(Nc3ccc(N(C)C(=O)CC)cc3)nc3[nH]cnc23)C1 (configuration not stated) here?
Answer: > 10.2 µM

system: DOHH-2; assay: cells; assay type: functional, cell-based, Homo sapiens; conditions: Homo sapiens, DOHH-2;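 note: growth inhibition of human DOHH-2 cells, read out with a cell viability assay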
Description: SANGER: Inhibition of human DOHH-2 cell growth in a cell viability assay.

Question: For C=CC(=O)N1CCCC(Nc2nc(Nc3ccc(N(C)C(=O)CC)cc3)nc3[nH]cnc23)C1 (configuration not stated), which IC50 is on record?
Answer: > 10.2 µM

system: HCE-T; assay: cells; assay type: functional, cell-based, Homo sapiens; conditions: Homo sapiens, HCE-T;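 note: cell viability assay read-out, reporting inhibition of HCE-T cell growth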
Description: SANGER: Inhibition of human HCE-T cell growth in a cell viability assay.

Question: For C=CC(=O)N1CCCC(Nc2nc(Nc3ccc(N(C)C(=O)CC)cc3)nc3[nH]cnc23)C1 (configuration not stated), which IC50 is on record?
Answer: > 10.2 µM

system: IA-LM; assay: cells; assay type: functional, cell-based; conditions: Homo sapiens;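 note: cell viability assay measuring growth inhibition of human IA-LM cells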
Description: SANGER: Inhibition of human IA-LM cell growth in a cell viability assay.

Question: C=CC(=O)N1CCCC(Nc2nc(Nc3ccc(N(C)C(=O)CC)cc3)nc3[nH]cnc23)C1 (configuration not stated) was tested. Which IC50 did it give?
Answer: > 10.2 µM

system: NH-12; assay: cells; assay type: functional, cell-based, Homo sapiens; conditions: Homo sapiens, NH-12;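 note: growth inhibition of NH-12 cells, read out with a cell viability assay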
Description: SANGER: Inhibition of human NH-12 cell growth in a cell viability assay.

Question: C=CC(=O)N1CCCC(Nc2nc(Nc3ccc(N(C)C(=O)CC)cc3)nc3[nH]cnc23)C1 (configuration not stated) was tested. Which IC50 did it give?
Answer: > 10.2 µM

system: JVM-2; assay: cells; assay type: functional, cell-based, Homo sapiens; conditions: Homo sapiens, JVM-2;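 note: growth inhibition of JVM-2 cells determined by a cell viability assay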
Description: SANGER: Inhibition of human JVM-2 cell growth in a cell viability assay.

Question: Which IC50 does the source give for C=CC(=O)N1CCCC(Nc2nc(Nc3ccc(N(C)C(=O)CC)cc3)nc3[nH]cnc23)C1 (configuration not stated) here?
Answer: > 10.2 µM

system: ONS-76; assay: cells; assay type: functional, cell-based, Homo sapiens; conditions: Homo sapiens, ONS-76;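 note: growth inhibition of human ONS-76 cells, read out with a cell viability assay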
Description: SANGER: Inhibition of human ONS-76 cell growth in a cell viability assay.

Question: How did the IC50 turn out when C=CC(=O)N1CCCC(Nc2nc(Nc3ccc(N(C)C(=O)CC)cc3)nc3[nH]cnc23)C1 (configuration not stated) was run?
Answer: > 10.2 µM

system: 8-MG-BA; assay: cells; assay type: functional, cell-based, Homo sapiens; conditions: Homo sapiens, 8-MG-BA;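 note: growth inhibition of 8-MG-BA cells, read out with a cell viability assay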
Description: SANGER: Inhibition of human 8-MG-BA cell growth in a cell viability assay.

Question: C=CC(=O)N1CCCC(Nc2nc(Nc3ccc(N(C)C(=O)CC)cc3)nc3[nH]cnc23)C1 (configuration not stated) was tested. Which IC50 did it give?
Answer: > 10.2 µM

system: MHH-PREB-1; assay: cells; assay type: functional, cell-based, Homo sapiens; conditions: Homo sapiens, MHH-PREB-1;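 note: cell viability assay measuring inhibition of proliferation of human MHH-PREB-1 cells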
Description: SANGER: Inhibition of human MHH-PREB-1 cell growth in a cell viability assay.

Question: C=CC(=O)N1CCCC(Nc2nc(Nc3ccc(N(C)C(=O)CC)cc3)nc3[nH]cnc23)C1 (configuration not stated) was tested. Which IC50 did it give?
Answer: > 10.2 µM

system: NCI-H720; assay: cells; assay type: functional, cell-based, Homo sapiens; conditions: Homo sapiens, NCI-H720;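 note: growth inhibition of human NCI-H720 cells determined by a cell viability assay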
Description: SANGER: Inhibition of human NCI-H720 cell growth in a cell viability assay.

Question: For C=CC(=O)N1CCCC(Nc2nc(Nc3ccc(N(C)C(=O)CC)cc3)nc3[nH]cnc23)C1 (configuration not stated), which IC50 is on record?
Answer: > 10.2 µM

system: JAR; assay: cells; assay type: functional, cell-based, Homo sapiens; conditions: Homo sapiens, JAR;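 note: growth inhibition of human JAR cells determined with a cell viability assay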
Description: SANGER: Inhibition of human JAR cell growth in a cell viability assay.

Question: With C=CC(=O)N1CCCC(Nc2nc(Nc3ccc(N(C)C(=O)CC)cc3)nc3[nH]cnc23)C1 (configuration not stated) as the compound, how does the IC50 read?
Answer: > 10.2 µM
